# Results published in US20050153872A1, “Methods and compositions for the treatment of infection” (priority 2004, published 2005).
# B1: NH2-colicinIa-I626-DEADYYCNSRDS-COOH (protein)
# chain: SDPVARGITNPGAESLGYDSDGHEIMAVASPIYVASNPPRVASPVFHGTPPAWSSFGNKTIWGGNEWVASPDSPTRSDIEKRDKEITAYKNTLSAQQKENENKRTEAGKRLSAAIAAREKDENTLKTLRAGNADAADITRQEFRLLQAELREYGFRTEIAGYDALRLHTESRMLFADADSLRISPREARSLIEQAEKRQKDAQNADKKAADMLAEYERRKGILDTRLSELEKNGGAALAVLDAQQARLLGQQTRNDRAISEARNKLSSVTESLNTARNALTRAEQQLTQQKNTPDGKTIVSPEKFPGRSSTNHSIVVSGDPRFAGTIKITTSAVIDNRANLNYLLSHSGLDYKRNILNDRNPVVTEDVEGDKKIYNAEVALAEWDKLRQRLLDARNKITSAESAVASNSARNNLSARTNEQKHANDALNALLKEKENIRNQLSGINQKIAEEKRKQDELKATKDAINFTTEFLKSVSEKYGAKAEQLAREMAGQAKGKKIRNVEEALKTYEKYRADINKKINAKDRAAIAAALESVKLSDISSNLNRFSRGLGYAGKFTSLADWITEFGKAVARGTENWRPLFVKTETIIAGNAATALVALALVFSILTGSALGIIGYGLLMAVTGALIDESLVEKANKFWGIDEADYYCNSRDS
# modifications: E217 - S228 from HBV HBsAg ScFV linked to Colicin Ia
# notes: light chain CDR3 of HBV HBsAg ScFv linked to colicin Ia at residue 626
# B2: NH2-colicinIa-I626-GFTFSDYYMS-COOH (protein)
# chain: SDPVARGITNPGAESLGYDSDGHEIMAVASPIYVASNPPRVASPVFHGTPPAWSSFGNKTIWGGNEWVASPDSPTRSDIEKRDKEITAYKNTLSAQQKENENKRTEAGKRLSAAIAAREKDENTLKTLRAGNADAADITRQEFRLLQAELREYGFRTEIAGYDALRLHTESRMLFADADSLRISPREARSLIEQAEKRQKDAQNADKKAADMLAEYERRKGILDTRLSELEKNGGAALAVLDAQQARLLGQQTRNDRAISEARNKLSSVTESLNTARNALTRAEQQLTQQKNTPDGKTIVSPEKFPGRSSTNHSIVVSGDPRFAGTIKITTSAVIDNRANLNYLLSHSGLDYKRNILNDRNPVVTEDVEGDKKIYNAEVALAEWDKLRQRLLDARNKITSAESAVASNSARNNLSARTNEQKHANDALNALLKEKENIRNQLSGINQKIAEEKRKQDELKATKDAINFTTEFLKSVSEKYGAKAEQLAREMAGQAKGKKIRNVEEALKTYEKYRADINKKINAKDRAAIAAALESVKLSDISSNLNRFSRGLGYAGKFTSLADWITEFGKAVARGTENWRPLFVKTETIIAGNAATALVALALVFSILTGSALGIIGYGLLMAVTGALIDESLVEKANKFWGIGFTFSDYYMS
# modifications: G28 - S37 from HBV HBsAg ScFV linked to Colicin Ia
# notes: heavy chain CDR1 of HBV HBsAg ScFv linked to colicin Ia at residue 626
# B3: NH2-colicin Ia-I626-SYAIS-…-AAWDDSLH-COOH (protein)
# chain: MSDPVARGITNPGAESLGYDSDGHEIMAVASPIYVASNPPRVASPVFHGTPPAWSSFGNKTIWGGNEWVASPDSPTRSDIEKRDKEITAYKNTLSAQQKENENKRTEAGKRLSAAIAAREKDENTLKTLRAGNADAADITRQEFRLLQAELREYGFRTEIAGYDALRLHTESRMLFADADSLRISPREARSLIEQAEKRQKDAQNADKKAADMLAEYERRKGILDTRLSELEKNGGAALAVLDAQQARLLGQQTRNDRAISEARNKLSSVTESLNTARNALTRAEQQLTQQKNTPDGKTIVSPEKFPGRSSTNHSIVVSGDPRFAGTIKITTSAVIDNRANLNYLLSHSGLDYKRNILNDRNPVVTEDVEGDKKIYNAEVALAEWDKLRQRLLDARNKITSAESAVASNSARNNLSARTNEQKHANDALNALLKEKENIRNQLSGINQKIAEEKRKQDELKATKDAINFTTEFLKSVSEKYGAKAEQLAREMAGQAKGKKIRNVEEALKTYEKYRADINKKINAKDRAAIAAALESVKLSDISSNLNRFSRGLGYAGKFTSLADWITEFGKAVARGTENWRPLFVKTETIIAGNAATALVALALVFSILTGSALGIIGYGLLMAVTGALIDESLVEKANKFWGISYAISWVARGQAAGQGLEWMGAAWDDSLH
# modifications: CDRs from HBV PreS-1 ScFv linked to colicin Ia
# notes: two CDRs from PreS-1 (Genbank AF427148) of HBV ScFv linked to colicin Ia
# What was measured:
# [1] = test system: Aspergillus niger SWA 1011 strain; experiment: In vitro cell growth inhibition assay; details: Ph-CA 5 μg/ml; Ph-SA 5 μg/ml; amphotericin B 200 ng/ml; Fluconazole 3 μg/ml
# [2] = test system: Candida albicans ATCC 10231; experiment: In vitro cell growth inhibition assay (OD595, filaments); details: Ph-CA 5 μg/ml; Ph-SA 5 μg/ml; ampicillin 50 μg/ml; amphotericin B 200 ng/ml; fluconazole 3 μg/ml
# [3] = test system: SMMC-7721 cells transfected with HCV; assay type: cell-based, human; details: about 100 micrograms per ml
Molecule,effect on growth of Aspergillus niger [1],effect on growth of Candida albicans [2],cell count and morphological features versus control [3]
C[C@@H]1[C@H](O)[C@@H](C)/C=C/C=C/C=C/C=C/C=C/C=C/C=C/[C@H](O[C@@H]2O[C@H](C)[C@@H](O)[C@H](N)[C@@H]2O)C[C@@H]2O[C@](O)(C[C@@H](O)C[C@@H](O)[C@H](O)CC[C@@H](O)C[C@@H](O)CC(=O)O[C@H]1C)C[C@H](O)[C@H]2C(=O)O [amphotericin B],inhibited Aspergillus niger growth,completely inhibited C. albicans growth,–
OC(Cn1cncn1)(Cn1cncn1)c1ccc(F)cc1F [fluconazole],no effect on the growth,no effect on the growth,–
B1,–,–,A portion of the treated cells died in comparison with the control and the rest became swollen and/or deformed
B2,–,–,Some of the treated cells died in comparison with the control and the rest became swollen and/or deformed
B3,–,–,Cell swelling occurred in certain cells
